In publication PMC6128854 (Scientific Reports, 2018):
Positions of bridges follow the written chain, without caps; N, C: chain ends. Non-standard residues stand in square brackets, D forms with d. Residues, ends and D or L forms follow the SMILES beside them. Hyp = O=C(O)[C@@H]1C[C@@H](O)CN1

Biological target: N-type calcium channel currents (Cav2.2) in rDRG neurons (Rattus norvegicus, UniProt Q02294)
Test: cell-based
Details: SEM

N-type calcium channel currents (Cav2.2) in rDRG neurons, sequence (Q02294 whole entry, looked up): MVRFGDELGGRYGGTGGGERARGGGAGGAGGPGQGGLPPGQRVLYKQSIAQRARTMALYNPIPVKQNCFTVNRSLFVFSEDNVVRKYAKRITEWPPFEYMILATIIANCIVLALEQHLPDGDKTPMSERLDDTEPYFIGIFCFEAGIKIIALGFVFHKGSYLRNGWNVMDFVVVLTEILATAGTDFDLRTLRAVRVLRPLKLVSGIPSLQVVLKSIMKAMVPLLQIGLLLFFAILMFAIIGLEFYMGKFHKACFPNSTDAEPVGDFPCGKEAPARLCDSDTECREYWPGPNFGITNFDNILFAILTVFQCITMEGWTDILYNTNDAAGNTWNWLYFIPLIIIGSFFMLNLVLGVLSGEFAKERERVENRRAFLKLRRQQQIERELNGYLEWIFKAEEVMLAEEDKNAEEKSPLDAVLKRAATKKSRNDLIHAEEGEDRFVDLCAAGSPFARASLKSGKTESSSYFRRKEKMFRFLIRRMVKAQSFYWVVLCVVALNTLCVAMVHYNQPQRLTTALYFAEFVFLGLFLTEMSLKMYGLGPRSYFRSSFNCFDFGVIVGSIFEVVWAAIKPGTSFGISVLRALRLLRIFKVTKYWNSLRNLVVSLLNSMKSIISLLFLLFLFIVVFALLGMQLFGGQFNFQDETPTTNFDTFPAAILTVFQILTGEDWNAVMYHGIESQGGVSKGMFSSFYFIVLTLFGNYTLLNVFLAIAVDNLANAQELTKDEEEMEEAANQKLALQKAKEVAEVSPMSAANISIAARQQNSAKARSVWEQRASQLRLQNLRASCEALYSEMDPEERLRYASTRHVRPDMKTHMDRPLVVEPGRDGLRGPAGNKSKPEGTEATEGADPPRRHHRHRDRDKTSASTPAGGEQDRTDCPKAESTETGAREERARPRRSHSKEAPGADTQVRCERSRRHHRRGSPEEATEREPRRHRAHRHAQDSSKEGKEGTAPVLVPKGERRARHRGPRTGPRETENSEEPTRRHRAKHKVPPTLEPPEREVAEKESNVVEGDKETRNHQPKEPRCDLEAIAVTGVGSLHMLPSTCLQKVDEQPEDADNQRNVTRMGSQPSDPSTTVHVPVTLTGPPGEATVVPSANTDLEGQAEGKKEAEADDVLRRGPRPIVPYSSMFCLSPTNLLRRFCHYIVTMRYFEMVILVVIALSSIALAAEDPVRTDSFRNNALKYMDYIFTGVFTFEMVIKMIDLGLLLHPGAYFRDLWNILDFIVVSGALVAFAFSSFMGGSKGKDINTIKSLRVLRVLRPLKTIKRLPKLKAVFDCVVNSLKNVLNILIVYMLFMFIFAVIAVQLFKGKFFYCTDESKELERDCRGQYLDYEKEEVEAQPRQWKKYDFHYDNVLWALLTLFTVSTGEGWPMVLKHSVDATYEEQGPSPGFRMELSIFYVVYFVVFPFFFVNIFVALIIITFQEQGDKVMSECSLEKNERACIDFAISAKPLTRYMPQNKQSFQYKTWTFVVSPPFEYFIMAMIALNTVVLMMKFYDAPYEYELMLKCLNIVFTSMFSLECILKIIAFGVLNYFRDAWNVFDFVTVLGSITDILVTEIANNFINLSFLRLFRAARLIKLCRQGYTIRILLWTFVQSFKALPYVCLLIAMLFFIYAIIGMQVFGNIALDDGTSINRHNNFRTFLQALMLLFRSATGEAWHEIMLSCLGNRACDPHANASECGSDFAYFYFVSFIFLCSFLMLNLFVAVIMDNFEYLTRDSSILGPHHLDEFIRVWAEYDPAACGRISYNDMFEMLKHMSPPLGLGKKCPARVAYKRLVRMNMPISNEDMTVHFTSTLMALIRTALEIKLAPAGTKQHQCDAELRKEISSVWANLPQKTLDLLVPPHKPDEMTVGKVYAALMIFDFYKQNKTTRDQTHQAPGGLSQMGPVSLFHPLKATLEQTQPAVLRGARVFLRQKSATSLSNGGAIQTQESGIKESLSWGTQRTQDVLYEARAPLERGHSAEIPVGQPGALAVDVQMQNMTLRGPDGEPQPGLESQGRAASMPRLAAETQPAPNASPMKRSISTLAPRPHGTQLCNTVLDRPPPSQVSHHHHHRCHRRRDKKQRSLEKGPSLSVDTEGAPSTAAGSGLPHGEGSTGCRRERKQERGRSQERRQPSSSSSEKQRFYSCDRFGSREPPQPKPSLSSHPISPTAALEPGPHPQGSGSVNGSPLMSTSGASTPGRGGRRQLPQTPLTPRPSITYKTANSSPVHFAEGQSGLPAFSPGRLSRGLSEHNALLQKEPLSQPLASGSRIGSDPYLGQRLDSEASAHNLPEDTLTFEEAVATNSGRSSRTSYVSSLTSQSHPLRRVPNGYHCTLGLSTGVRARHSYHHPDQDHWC

## CC[C@H](C)[C@@H]1NC(=O)[C@@H]2CSSC[C@@H]3NC(=O)[C@H](CCCCN)NC(=O)[C@H](CO)NC(=O)CNC(=O)[C@@H]4C[C@@H](O)CN4C(=O)[C@@H]4CCCN4C(=O)[C@H](CCCCN)NC(=O)[C@@H](N)CSSC[C@H](NC(=O)[C@H](CSSC[C@@H](C(=O)N[C@@H](CCCNC(=N)N)C(=O)N[C@@H](CCCCN)C(=O)N[C@@H](Cc4ccc(O)cc4)C(=O)N[C@@H](Cc4ccc(O)cc4)C(=O)O)NC(=O)[C@H](CCCNC(=N)N)NC(=O)[C@H](CCCCN)NC(=O)[C@H]([C@@H](C)O)NC(=O)[C@H](Cc4ccc(O)cc4)NC(=O)[C@H](CO)NC1=O)NC(=O)[C@H](CC(=O)O)NC(=O)[C@H](Cc1ccc(O)cc1)NC(=O)[C@H](CCSC)NC(=O)[C@H](CO)NC(=O)[C@@H]1C[C@@H](O)CN1C(=O)[C@H](CO)NC3=O)C(=O)N[C@@H]([C@@H](C)O)C(=O)N[C@@H]([C@@H](C)O)C(=O)N2 [MoVIB-[R13Y]] (H-CKP[Hyp]GSKCS[Hyp]SMYDCCTTCISYTKRCRKYY-OH; disulfide 1-16, 8-19, 15-26)
  IC50: 0.9 ± 0.13 µM
